System: Helicoverpa armigera
Assay: Insecticidal activity test against Helicoverpa armigera (cabbage leaf dip)
Assay type: in vivo
Settings: hatched larvae, 25° C., after 6 days
Procedure: A wettable powder prepared in accordance with Formulation Example 1 was diluted with water to a concentration of 500 ppm as the active ingredient. A cabbage leaf was dipped in the resultant chemical solution, air-dried, and then put in a plastic cup. Five hatched larvae of Helicoverpa armigera were released therein, and the resultant was covered. Thereafter, the resultant was placed in a constant temperature chamber of 25° C., and after 6 days, the number of dead larvae was counted to obtain a corrected mortality rate in accordance with the following equation of Expression 1. The test was performed in duplicate.

[1] = 500 ppm active ingredient, same test run with comparative formula A, 2-a retested at the same time

**Q.** How did the corrected mortality rate (500 ppm active ingredient (wettable powder diluted with water), first test) turn out when Cn1nc(C(F)(F)F)c(CSSCc2c(C(F)(F)F)nn(C)c2OC(F)F)c1OC(F)F [Compound 2-a, 1,2-bis[(5-difluoromethoxy-1-methyl-3-trifluoromethylpyrazol-4-yl)methyl]disulfide] was run?
**A.** 75%

**Q.** What about the corrected mortality rate [1] of the same compound?
**A.** 89%

**Q.** Cc1cc(CSSCc2cc(C)[nH]n2)n[nH]1 [formula A, reference compound] was tested. Which corrected mortality rate [1] did it give?
**A.** 44%

From patent US20240391909A1, “DISULFIDE COMPOUND, POLYSULFIDE COMPOUND, AND USE THEREOF” (KUMIAI CHEMICAL INDUSTRY CO., LTD., priority 2021, published 2024)
